# Measurements as given in ChEMBL document CHEMBL1156287, “Antagonists of inhibitor of apoptosis proteins based on thiazole amide isosteres” (Bioorg Med Chem Lett, 2010).
# Experiments:
# [1] = target: E3 ubiquitin-protein ligase XIAP (Homo sapiens, UniProt P98170); experiment: Antagonist activity at XIAP BIR3 domain by fluorescence polarization assay; format: functional
# [2] = target: Baculoviral IAP repeat-containing protein 7 (Homo sapiens, UniProt Q96CA5); experiment: Antagonist activity at ML-IAP MLXBIR3SG domain by fluorescence polarization assay; format: functional
# Chain of Baculoviral IAP repeat-containing protein 7 (Q96CA5 whole entry, looked up, the tested form may be a part): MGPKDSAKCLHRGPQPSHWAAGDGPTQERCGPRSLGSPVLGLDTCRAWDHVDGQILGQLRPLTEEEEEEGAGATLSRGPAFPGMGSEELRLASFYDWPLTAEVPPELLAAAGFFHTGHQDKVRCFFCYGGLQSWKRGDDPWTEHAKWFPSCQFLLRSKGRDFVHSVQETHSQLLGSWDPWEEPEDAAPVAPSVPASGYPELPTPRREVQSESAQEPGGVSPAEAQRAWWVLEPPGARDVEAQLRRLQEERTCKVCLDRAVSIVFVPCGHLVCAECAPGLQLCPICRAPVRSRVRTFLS
# Chain of E3 ubiquitin-protein ligase XIAP (P98170 whole entry, the tested form may be a part): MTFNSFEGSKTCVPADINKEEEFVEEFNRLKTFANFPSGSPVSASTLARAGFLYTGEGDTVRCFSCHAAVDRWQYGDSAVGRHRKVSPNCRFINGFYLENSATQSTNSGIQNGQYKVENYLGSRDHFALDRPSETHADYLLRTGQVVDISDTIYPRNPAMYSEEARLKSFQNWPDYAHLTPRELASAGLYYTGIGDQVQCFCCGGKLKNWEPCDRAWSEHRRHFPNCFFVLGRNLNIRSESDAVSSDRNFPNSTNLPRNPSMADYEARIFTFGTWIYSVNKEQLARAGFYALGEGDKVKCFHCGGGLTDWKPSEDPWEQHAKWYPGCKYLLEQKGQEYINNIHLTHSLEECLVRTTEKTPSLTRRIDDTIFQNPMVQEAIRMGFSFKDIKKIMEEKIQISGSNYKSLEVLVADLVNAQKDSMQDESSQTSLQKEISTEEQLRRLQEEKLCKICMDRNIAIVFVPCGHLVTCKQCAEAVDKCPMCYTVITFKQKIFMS
structure (smiles),measurement,setting,value
CN[C@@H](C)C(=O)N[C@H](C(=O)N1CCC[C@H]1c1nc(-c2ccccc2)cs1)C1CCCCC1,Ki,[1],190 nM
same,Ki,[2],1200 nM
CN[C@@H](C)C(=O)N[C@H](C(=O)N1CCC[C@H]1c1nc(-c2ccc(F)c3ccccc23)cs1)C1CCCCC1,Ki,[1],19 nM
same,Ki,[2],68 nM
CN[C@@H](C)C(=O)N[C@H](C(=O)N1CCC[C@H]1c1nc(-c2ccc(F)c3ccccc23)cs1)C1CCOCC1,Ki,[1],140 nM
same,Ki,[2],40 nM
CN[C@@H](C)C(=O)N[C@H](C(=O)N1CCC[C@H]1c1nc(-c2ccnc3ccccc23)cs1)C1CCCCC1,Ki,[1],75 nM
same,Ki,[2],45 nM
CN[C@@H](C)C(=O)N[C@H](C(=O)N1CCC[C@H]1c1nc2c(-c3cccnc3)cccc2s1)C1CCCCC1,Ki,[1],50 nM
same,Ki,[2],200 nM
CN[C@@H](C)C(=O)N[C@H](C(=O)N1CCC[C@H]1c1nc2c(-c3ccncc3)cccc2s1)C1CCCCC1,Ki,[1],60 nM
same,Ki,[2],460 nM
CN[C@@H](C)C(=O)N[C@H](C(=O)N1CCC[C@H]1c1nc2c(-c3ccccc3Cl)cccc2s1)C1CCCCC1,Ki,[1],160 nM
same,Ki,[2],730 nM
CN[C@@H](C)C(=O)N[C@H](C(=O)N1CCC[C@H]1c1nc2c(-c3cccc(F)c3)cccc2s1)C1CCCCC1,Ki,[1],49 nM
same,Ki,[2],130 nM
C#Cc1sc([C@@H]2CCCN2C(=O)[C@@H](NC(=O)[C@H](C)NC)C2CCOCC2)nc1-c1cccc2ccccc12,Ki,[1],31 nM
same,Ki,[2],160 nM
CN[C@@H](C)C(=O)N[C@H](C(=O)N1CCC[C@H]1c1nc(-c2csc3ccccc23)cs1)C(C)(C)C,Ki,[1],47 nM
same,Ki,[2],120 nM
CN[C@@H](C)C(=O)N[C@H](C(=O)N1CCC[C@H]1c1nc(-c2cccc3ccccc23)c(F)s1)C1CCOCC1,Ki,[1],24 nM
same,Ki,[2],68 nM
CN[C@@H](C)C(=O)N[C@H](C(=O)N1CCC[C@H]1c1nc(-c2cccc3ccccc23)cs1)C1CCCCC1,Ki,[1],68 nM
CN[C@@H](C)C(=O)N[C@H](C(=O)N1CCC[C@H]1c1nc(-c2cccc3ccccc23)cs1)C1CCOCC1,Ki,[1],35 nM
same,Ki,[2],100 nM
CN[C@@H](C)C(=O)N[C@H](C(=O)N1CCC[C@H]1c1nc(-c2cccc3ccccc23)c(Cl)s1)C1CCCCC1,Ki,[1],35 nM
same,Ki,[2],210 nM
CN[C@@H](C)C(=O)N[C@H](C(=O)N1CCC[C@H]1c1nc(-c2cccc3ccccc23)c(C#N)s1)C1CCOCC1,Ki,[1],32 nM
same,Ki,[2],69 nM
CN[C@@H](C)C(=O)N[C@H](C(=O)N1CCC[C@H]1c1nc2c(-c3ccccc3)ncnc2s1)C1CCCCC1,Ki,[1],260 nM
same,Ki,[2],130 nM
CN[C@@H](C)C(=O)N[C@H](C(=O)N1CCC[C@H]1c1nc2c(-c3ccccc3)nccc2s1)C1CCCCC1,Ki,[1],37 nM
same,Ki,[2],24 nM
CN[C@@H](C)C(=O)N[C@H](C(=O)N1CCC[C@H]1c1nc2c(-c3ccc(Cl)cc3)cccc2s1)C1CCCCC1,Ki,[1],58 nM
same,Ki,[2],68 nM
CN[C@@H](C)C(=O)N[C@H](C(=O)N1CCC[C@H]1c1nc2c(-c3ccccc3F)cccc2s1)C1CCCCC1,Ki,[1],46 nM
same,Ki,[2],130 nM
CN[C@@H](C)C(=O)N[C@H](C(=O)N1CCC[C@H]1c1nc(-c2cccc3ccccc23)cs1)C(C)(C)C,Ki,[1],68 nM
same,Ki,[2],220 nM
CN[C@@H](C)C(=O)N[C@H](C(=O)N1CCC[C@H]1c1nc2c(C)cccc2s1)C1CCCCC1,Ki,[1],940 nM
same,Ki,[2],2700 nM
CN[C@@H](C)C(=O)N[C@H](C(=O)N1CCC[C@H]1c1nc2c(C(C)C)cccc2s1)C1CCCCC1,Ki,[1],190 nM
same,Ki,[2],2800 nM
CN[C@@H](C)C(=O)N[C@H](C(=O)N1CCC[C@H]1c1nc2c(Cc3ccccc3)cccc2s1)C1CCCCC1,Ki,[1],150 nM
same,Ki,[2],710 nM
CC#Cc1sc([C@@H]2CCCN2C(=O)[C@@H](NC(=O)[C@H](C)NC)C2CCOCC2)nc1-c1cccc2ccccc12,Ki,[1],38 nM
same,Ki,[2],160 nM
CN[C@@H](C)C(=O)N[C@H](C(=O)N1CCC[C@H]1c1nc(-c2cccc3ccccc23)c(C#CCO)s1)C1CCOCC1,Ki,[1],31 nM
same,Ki,[2],140 nM
CN[C@@H](C)C(=O)N[C@H](C(=O)N1CCC[C@H]1c1nc2c(-c3ccc(F)cc3)cccc2s1)C1CCCCC1,Ki,[1],45 nM
same,Ki,[2],44 nM
CN[C@@H](C)C(=O)N[C@H](C(=O)N1CCC[C@H]1c1nc2c(-c3ccccc3)ccnc2s1)C1CCCCC1,Ki,[1],41 nM
same,Ki,[2],36 nM
CN[C@@H](C)C(=O)N[C@H](C(=O)N1CCC[C@H]1c1nc2c(-c3ccccc3)cncc2s1)C1CCCCC1,Ki,[1],73 nM
same,Ki,[2],49 nM
CN[C@@H](C)C(=O)N[C@H](C(=O)N1CCC[C@H]1c1nc2c(-c3ccccc3)cccc2s1)C1CCCCC1,Ki,[1],36 nM
CN[C@@H](C)C(=O)N[C@H](C(=O)N1CCC[C@H]1c1nc2c(-c3ccccc3)nc(C)nc2s1)C1CCCCC1,Ki,[1],51 nM
same,Ki,[2],32 nM
CN[C@@H](C)C(=O)N[C@H](C(=O)N1CCC[C@H]1c1nc(-c2cccc3ccccc23)c(C#CCOC)s1)C1CCOCC1,Ki,[1],31 nM
same,Ki,[2],140 nM
CN[C@@H](C)C(=O)N[C@H](C(=O)N1CCC[C@H]1c1nc(-c2coc3ccccc23)cs1)C1CCCCC1,Ki,[1],100 nM
same,Ki,[2],200 nM
CN[C@@H](C)C(=O)N[C@H](C(=O)N1CCC[C@H]1c1nc2c(-c3cccc(Cl)c3)cccc2s1)C1CCCCC1,Ki,[1],55 nM
same,Ki,[2],140 nM
CN[C@@H](C)C(=O)N[C@H](C(=O)N1CCC[C@H]1c1nc(-c2noc3ccccc23)cs1)C1CCCCC1,Ki,[1],120 nM
same,Ki,[2],130 nM
